Results published in PMC5814754, “Quantitative, Wide-Spectrum Kinase Profiling in Live Cells for Assessing the Effect of Cellular ATP on Target Engagement” (Cell Chemical Biology, 2018).
Blank lines part the entries; values can stand above or below the compound they belong to.

How the values were obtained:
Test in all cases: Apparent affinity (EC50) of energy transfer probes by titration onto live HEK293 cells expressing kinase/Nluc fusions (Table S1)
Assay type in all cases: binding
[1] = biological target: full-length kinase/Nluc fusion proteins (Homo sapiens, UniProt P09619); details: PDGFRB, Nluc C; read-out: Probe EC50
Sequence of full-length kinase/Nluc fusion proteins (Homo sapiens, UniProt P09619) (P09619 33-1106): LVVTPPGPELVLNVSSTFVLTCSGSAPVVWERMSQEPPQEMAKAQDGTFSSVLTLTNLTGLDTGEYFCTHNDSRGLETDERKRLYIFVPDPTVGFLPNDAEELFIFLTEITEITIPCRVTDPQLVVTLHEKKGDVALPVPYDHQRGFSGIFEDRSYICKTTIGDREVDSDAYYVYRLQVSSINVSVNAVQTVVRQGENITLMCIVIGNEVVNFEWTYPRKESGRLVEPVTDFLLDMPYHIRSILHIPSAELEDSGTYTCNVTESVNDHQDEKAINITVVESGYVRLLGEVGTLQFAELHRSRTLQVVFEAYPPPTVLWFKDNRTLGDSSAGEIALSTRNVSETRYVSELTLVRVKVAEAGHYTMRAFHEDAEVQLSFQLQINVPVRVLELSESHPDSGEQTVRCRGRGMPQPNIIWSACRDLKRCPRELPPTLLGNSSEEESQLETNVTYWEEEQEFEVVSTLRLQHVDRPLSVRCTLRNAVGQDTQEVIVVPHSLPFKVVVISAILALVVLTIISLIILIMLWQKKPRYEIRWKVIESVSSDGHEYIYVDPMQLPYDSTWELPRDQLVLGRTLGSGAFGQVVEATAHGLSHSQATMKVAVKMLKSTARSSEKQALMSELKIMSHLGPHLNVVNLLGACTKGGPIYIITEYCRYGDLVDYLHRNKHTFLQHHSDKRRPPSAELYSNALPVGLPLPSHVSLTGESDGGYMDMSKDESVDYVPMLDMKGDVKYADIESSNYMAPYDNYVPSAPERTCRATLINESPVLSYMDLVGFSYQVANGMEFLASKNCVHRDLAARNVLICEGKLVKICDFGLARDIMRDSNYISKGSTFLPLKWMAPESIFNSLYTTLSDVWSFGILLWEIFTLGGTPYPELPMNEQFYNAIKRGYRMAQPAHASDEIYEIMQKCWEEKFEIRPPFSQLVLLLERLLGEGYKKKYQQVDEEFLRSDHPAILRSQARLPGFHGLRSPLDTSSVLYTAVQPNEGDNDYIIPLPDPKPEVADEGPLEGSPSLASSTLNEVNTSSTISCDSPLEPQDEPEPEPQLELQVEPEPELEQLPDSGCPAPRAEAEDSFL

[2] = biological target: full-length kinase/Nluc fusion proteins (Homo sapiens, UniProt P10721); details: KIT, Nluc C; read-out: Probe EC50
Sequence of full-length kinase/Nluc fusion proteins (Homo sapiens, UniProt P10721) (P10721 26-976): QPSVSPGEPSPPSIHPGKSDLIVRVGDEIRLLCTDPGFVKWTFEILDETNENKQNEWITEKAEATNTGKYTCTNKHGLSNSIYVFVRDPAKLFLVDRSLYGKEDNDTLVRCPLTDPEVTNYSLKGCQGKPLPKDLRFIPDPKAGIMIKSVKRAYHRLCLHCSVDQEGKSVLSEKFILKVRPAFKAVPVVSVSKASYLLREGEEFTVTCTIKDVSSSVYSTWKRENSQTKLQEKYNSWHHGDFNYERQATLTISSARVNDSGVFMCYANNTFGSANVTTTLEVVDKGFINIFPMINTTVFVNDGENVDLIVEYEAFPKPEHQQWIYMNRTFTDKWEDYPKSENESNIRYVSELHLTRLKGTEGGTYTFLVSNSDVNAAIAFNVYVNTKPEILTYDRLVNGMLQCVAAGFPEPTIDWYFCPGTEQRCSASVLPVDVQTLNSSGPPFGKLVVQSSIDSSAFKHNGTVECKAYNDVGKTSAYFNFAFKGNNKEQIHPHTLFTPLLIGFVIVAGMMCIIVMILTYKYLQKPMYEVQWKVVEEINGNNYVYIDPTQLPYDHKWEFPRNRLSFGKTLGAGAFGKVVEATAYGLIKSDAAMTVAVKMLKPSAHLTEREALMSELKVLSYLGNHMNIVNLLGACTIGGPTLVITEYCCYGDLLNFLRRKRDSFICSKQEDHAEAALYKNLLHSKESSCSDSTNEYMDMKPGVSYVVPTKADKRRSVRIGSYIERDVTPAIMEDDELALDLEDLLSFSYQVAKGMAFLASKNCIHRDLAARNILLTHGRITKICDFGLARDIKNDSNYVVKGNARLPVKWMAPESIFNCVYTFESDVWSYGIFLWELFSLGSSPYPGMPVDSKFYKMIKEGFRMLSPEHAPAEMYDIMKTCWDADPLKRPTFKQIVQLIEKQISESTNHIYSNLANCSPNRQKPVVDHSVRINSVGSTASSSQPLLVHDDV

[3] = biological target: full-length kinase/Nluc fusion proteins (Homo sapiens, UniProt Q16539); details: MAPK14, Nluc C; read-out: Probe EC50
[4] = biological target: full-length kinase/Nluc fusion proteins (Homo sapiens, UniProt Q15569); details: TESK1 (NP_006276), Nluc orientation N; read-out: Probe EC50
[5] = biological target: full-length kinase/Nluc fusion proteins (Homo sapiens, UniProt P36896); details: ACVR1B, Nluc C; read-out: Probe EC50
[6] = biological target: full-length kinase/Nluc fusion proteins (Homo sapiens, UniProt P08581); details: MET, Nluc C; read-out: Probe EC50
[7] = biological target: full-length kinase/Nluc fusion proteins (Homo sapiens, UniProt Q9NSY1); details: BMP2K, Nluc N; read-out: Probe EC50
Sequence of full-length kinase/Nluc fusion proteins (Homo sapiens, UniProt Q9NSY1) (Q9NSY1 whole entry, the tested form may be a part): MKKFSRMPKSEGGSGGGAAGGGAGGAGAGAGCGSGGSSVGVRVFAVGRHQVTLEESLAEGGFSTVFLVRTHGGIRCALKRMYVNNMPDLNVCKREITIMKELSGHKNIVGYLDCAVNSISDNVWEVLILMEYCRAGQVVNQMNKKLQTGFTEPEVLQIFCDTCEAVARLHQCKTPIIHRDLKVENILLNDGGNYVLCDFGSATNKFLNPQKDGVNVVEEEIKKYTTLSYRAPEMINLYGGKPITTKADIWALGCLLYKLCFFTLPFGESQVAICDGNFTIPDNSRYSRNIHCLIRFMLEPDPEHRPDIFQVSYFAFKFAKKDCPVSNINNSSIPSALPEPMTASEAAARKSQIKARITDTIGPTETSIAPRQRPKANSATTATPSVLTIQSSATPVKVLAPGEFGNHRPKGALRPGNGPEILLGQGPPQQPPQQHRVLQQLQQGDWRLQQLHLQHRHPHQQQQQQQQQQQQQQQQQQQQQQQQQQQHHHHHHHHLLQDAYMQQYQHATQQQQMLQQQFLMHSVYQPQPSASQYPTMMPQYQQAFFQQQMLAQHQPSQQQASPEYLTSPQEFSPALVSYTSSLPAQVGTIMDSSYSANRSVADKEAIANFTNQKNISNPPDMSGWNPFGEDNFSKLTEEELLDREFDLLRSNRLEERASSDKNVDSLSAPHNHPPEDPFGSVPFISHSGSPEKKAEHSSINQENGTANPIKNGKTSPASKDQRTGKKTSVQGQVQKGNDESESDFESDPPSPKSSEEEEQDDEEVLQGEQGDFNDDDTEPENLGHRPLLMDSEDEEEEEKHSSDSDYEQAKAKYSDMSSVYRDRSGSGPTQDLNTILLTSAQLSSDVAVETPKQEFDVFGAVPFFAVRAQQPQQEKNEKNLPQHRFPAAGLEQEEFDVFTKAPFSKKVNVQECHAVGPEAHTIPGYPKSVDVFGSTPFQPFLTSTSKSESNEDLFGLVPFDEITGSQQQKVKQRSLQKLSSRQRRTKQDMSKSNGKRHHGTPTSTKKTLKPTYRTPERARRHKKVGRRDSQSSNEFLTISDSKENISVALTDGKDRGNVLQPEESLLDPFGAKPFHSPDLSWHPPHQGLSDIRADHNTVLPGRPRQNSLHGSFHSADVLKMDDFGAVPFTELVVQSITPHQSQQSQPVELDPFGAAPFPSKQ

[8] = biological target: full-length kinase/Nluc fusion proteins (Homo sapiens, UniProt P31152); details: MAPK4, Nluc N; read-out: Probe EC50
[9] = biological target: full-length kinase/Nluc fusion proteins (Homo sapiens, UniProt P35590); details: TIE1 (NP_005415), Nluc orientation C; read-out: Probe EC50
[10] = biological target: full-length kinase/Nluc fusion proteins (Homo sapiens, UniProt P16591); details: FER, Nluc C; read-out: Probe EC50
[11] = biological target: full-length kinase/Nluc fusion proteins (Homo sapiens, UniProt Q13237); details: PRKG2, Nluc C; read-out: Probe EC50
Sequence of full-length kinase/Nluc fusion proteins (Homo sapiens, UniProt Q13237) (Q13237 whole entry, the tested form may be a part): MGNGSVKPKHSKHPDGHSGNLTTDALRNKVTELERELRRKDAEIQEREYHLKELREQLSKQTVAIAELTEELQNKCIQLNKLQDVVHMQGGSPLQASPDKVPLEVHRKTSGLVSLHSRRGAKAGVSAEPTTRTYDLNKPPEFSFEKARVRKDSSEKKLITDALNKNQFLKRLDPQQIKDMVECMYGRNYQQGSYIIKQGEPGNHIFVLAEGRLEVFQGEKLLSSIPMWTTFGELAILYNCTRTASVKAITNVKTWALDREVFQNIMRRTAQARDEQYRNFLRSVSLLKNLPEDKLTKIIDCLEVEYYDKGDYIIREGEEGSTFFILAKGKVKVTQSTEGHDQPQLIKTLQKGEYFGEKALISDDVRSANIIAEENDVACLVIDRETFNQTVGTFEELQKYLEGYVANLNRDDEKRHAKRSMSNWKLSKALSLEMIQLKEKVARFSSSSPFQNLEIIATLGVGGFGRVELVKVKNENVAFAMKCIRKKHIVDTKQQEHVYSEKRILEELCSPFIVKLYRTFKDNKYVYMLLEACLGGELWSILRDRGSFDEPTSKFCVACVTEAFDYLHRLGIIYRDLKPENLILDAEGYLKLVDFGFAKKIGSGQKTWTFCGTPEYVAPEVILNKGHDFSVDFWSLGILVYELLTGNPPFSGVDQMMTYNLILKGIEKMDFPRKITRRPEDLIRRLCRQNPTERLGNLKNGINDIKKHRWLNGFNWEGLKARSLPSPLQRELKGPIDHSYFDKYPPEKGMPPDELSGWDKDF

[12] = biological target: full-length kinase/Nluc fusion proteins (Homo sapiens, UniProt Q9P286); details: PAK7, Nluc C; read-out: Probe EC50
[13] = biological target: full-length kinase/Nluc fusion proteins (Homo sapiens, UniProt O75676); details: RPS6KA4 (NP_001287731), Nluc orientation N; read-out: Probe EC50
[14] = biological target: full-length kinase/Nluc fusion proteins (Homo sapiens, UniProt Q96GD4); details: AURKB, Nluc C; read-out: Probe EC50
[15] = biological target: full-length kinase/Nluc fusion proteins (Homo sapiens, UniProt O76039); details: CDKL5, Nluc N; read-out: Probe EC50
[16] = biological target: full-length kinase/Nluc fusion proteins (Homo sapiens, UniProt Q9NYY3); details: PLK2, Nluc N; read-out: Probe EC50
[17] = biological target: full-length kinase/Nluc fusion proteins (Homo sapiens, UniProt Q05397); details: PTK2, Nluc N; read-out: Probe EC50
[18] = biological target: full-length kinase/Nluc fusion proteins (Homo sapiens, UniProt Q9NWZ3); details: IRAK4, Nluc C; read-out: Probe EC50
[19] = biological target: full-length kinase/Nluc fusion proteins (Homo sapiens, UniProt O75716); details: STK16 (NP_001317142), Nluc orientation N; read-out: Probe EC50
[20] = biological target: full-length kinase/Nluc fusion proteins (Homo sapiens, UniProt Q8IWQ3); details: BRSK2, Nluc N; read-out: Probe EC50
[21] = biological target: full-length kinase/Nluc fusion proteins (Homo sapiens, UniProt P11309); details: PIM1, Nluc C; read-out: Probe EC50
[22] = biological target: full-length kinase/Nluc fusion proteins (Homo sapiens, UniProt Q9Y463); details: DYRK1B, Nluc N; read-out: Probe EC50
[23] = biological target: full-length kinase/Nluc fusion proteins (Homo sapiens, UniProt P29376); details: LTK, Nluc C; read-out: Probe EC50
[24] = biological target: full-length kinase/Nluc fusion proteins (Homo sapiens, UniProt P29597); details: TYK2 (NP_003322), Nluc orientation C; read-out: Probe EC50
[25] = biological target: full-length kinase/Nluc fusion proteins (Homo sapiens, UniProt O60674); details: JAK2, Nluc C; read-out: Probe EC50
[26] = biological target: full-length kinase/Nluc fusion proteins (Homo sapiens, UniProt P11362); details: FGFR1, Nluc C; read-out: Probe EC50
[27] = biological target: full-length kinase/Nluc fusion proteins (Homo sapiens, UniProt P36888); details: FLT3, Nluc C; read-out: Probe EC50
Sequence of full-length kinase/Nluc fusion proteins (Homo sapiens, UniProt P36888) (P36888 27-993): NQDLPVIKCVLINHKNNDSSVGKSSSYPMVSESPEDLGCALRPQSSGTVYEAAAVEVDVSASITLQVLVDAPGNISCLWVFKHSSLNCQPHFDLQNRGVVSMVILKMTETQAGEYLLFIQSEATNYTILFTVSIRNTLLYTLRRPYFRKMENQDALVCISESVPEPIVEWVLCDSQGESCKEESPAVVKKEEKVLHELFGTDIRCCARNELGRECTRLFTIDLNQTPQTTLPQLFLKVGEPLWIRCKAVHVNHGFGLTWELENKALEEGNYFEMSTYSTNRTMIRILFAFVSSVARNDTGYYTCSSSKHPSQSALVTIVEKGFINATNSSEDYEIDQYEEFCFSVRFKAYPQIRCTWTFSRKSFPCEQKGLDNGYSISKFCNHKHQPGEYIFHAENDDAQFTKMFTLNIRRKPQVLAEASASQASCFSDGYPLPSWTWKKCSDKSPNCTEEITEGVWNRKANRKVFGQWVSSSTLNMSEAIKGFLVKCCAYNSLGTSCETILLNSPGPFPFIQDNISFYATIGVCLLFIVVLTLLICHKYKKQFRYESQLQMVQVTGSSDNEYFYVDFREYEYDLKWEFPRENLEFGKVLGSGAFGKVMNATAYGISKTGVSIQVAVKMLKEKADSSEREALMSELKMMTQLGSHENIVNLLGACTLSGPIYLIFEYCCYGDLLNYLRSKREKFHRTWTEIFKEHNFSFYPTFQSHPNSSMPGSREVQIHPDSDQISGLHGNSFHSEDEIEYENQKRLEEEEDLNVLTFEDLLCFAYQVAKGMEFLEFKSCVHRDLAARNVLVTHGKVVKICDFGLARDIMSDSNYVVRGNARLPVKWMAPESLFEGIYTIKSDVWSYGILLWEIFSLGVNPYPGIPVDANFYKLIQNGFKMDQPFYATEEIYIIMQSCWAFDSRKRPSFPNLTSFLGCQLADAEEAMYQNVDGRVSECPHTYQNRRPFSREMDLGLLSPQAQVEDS

[28] = biological target: full-length kinase/Nluc fusion proteins (Homo sapiens, UniProt Q02779); details: MAP3K10, Nluc N; read-out: Probe EC50
[29] = biological target: full-length kinase/Nluc fusion proteins (Homo sapiens, UniProt O75385); details: ULK1 (NP_003556), Nluc orientation N; read-out: Probe EC50
[30] = biological target: full-length kinase/Nluc fusion proteins (Homo sapiens, UniProt Q6P5Z2); details: PKN3, Nluc C; read-out: Probe EC50
[31] = biological target: full-length kinase/Nluc fusion proteins (Homo sapiens, UniProt Q13131); details: PRKAA1, Nluc N; read-out: Probe EC50
[32] = biological target: full-length kinase/Nluc fusion proteins (Homo sapiens, UniProt Q9BVS4); details: RIOK2, Nluc N; read-out: Probe EC50

EC50 [1]: 200 nM | EC50 [2]: 200 nM | EC50 [3]: 80 nM | EC50 [4]: > 1000 nM
Compound: Cc1nc(Nc2ncc(C(=O)Nc3c(C)cccc3Cl)s2)cc(N2CCN(CCOCCNC(=O)CCc3ccc4n3[B-](F)(F)[N+]3=C(c5ccc[nH]5)C=CC3=C4)CC2)n1 [Energy Transfer Probe 6, 2-((6-(4-(2-(2-aminoethoxy)ethyl)piperazin-1-yl)-2-methylpyrimidin-4-yl)amino)-N-(2-chloro-6-methylphenyl)thiazole-5-carboxamide-NanoBRET 590]

EC50 [5]: > 1000 nM | EC50 [6]: 400 nM | EC50 [7]: > 1000 nM | EC50 [8]: > 1000 nM | EC50 [9]: 100 nM | EC50 [10]: > 1000 nM | EC50 [11]: > 1000 nM | EC50 [12]: > 1000 nM | EC50 [13]: 100 nM | EC50 [14]: 10 nM | EC50 [15]: > 1000 nM | EC50 [16]: > 1000 nM | EC50 [17]: 90 nM | EC50 [18]: > 1000 nM | EC50 [19]: 300 nM | EC50 [20]: > 1000 nM | EC50 [21]: > 1000 nM | EC50 [22]: > 1000 nM | EC50 [23]: > 1000 nM | EC50 [24]: > 1000 nM | EC50 [25]: > 1000 nM | EC50 [26]: 600 nM | EC50 [27]: > 1000 nM | EC50 [28]: > 1000 nM | EC50 [29]: > 1000 nM | EC50 [30]: > 1000 nM | EC50 [31]: 300 nM | EC50 [32]: > 1000 nM
Compound: CNC(=O)c1ccccc1Nc1nc(Nc2ccc(N3CCN(C(=O)CCOCCOCCOCCOCCNC(=O)CCc4ccc5n4[B-](F)(F)[N+]4=C(c6ccc[nH]6)C=CC4=C5)CC3)cc2)ncc1Cl [Energy Transfer Probe 5, 2-((2-((4-(4-(1-amino-3,6,9,12-tetraoxapentadecan-15-oyl)piperazin-1-yl)phenyl)amino)-5-chloropyrimidin-4-yl)amino)-N-methylbenzamide-NanoBRET 590]
